Reference: patent US20260000728A1, “PEPTIDE HAVING ACE INHIBITORY ACTIVITY AND COMPOSITION CONTAINING THE SAME” (Vedan International (Holdings) Limited, priority 2024, published 2026)

Test system: Spontaneously hypertensive rats (SHR)
Test: Animal Test (2): 8-week feeding, weekly blood pressure in SHR
Format: in vivo, rat
Settings: PC group, 1 mg/kg
Procedure: Six-week-old spontaneously hypertensive rats (SHR) were divided into 5 groups, each receiving the corresponding treatment stated below: • Negative control group (NC group): feeding with water • Positive control group (PC group): feeding with hypertension drug Captopril at 1 mg/kg • Low-dose group (L group): feeding with the peptide composition disclosed herein at a dose of 50 mg/kg • Medium-dose group (M group): feeding with the peptide composition disclosed herein at a dose of 100 mg/kg • High-dose group (H group): feeding with the peptide composition disclosed herein at a dose of 200 mg/kg
The experiment lasted for a total of 8 weeks.

SMILES: C[C@H](CS)C(=O)N1CCC[C@H]1C(=O)O [Captopril]
- Diastolic blood pressure (Week 0): 80.2 ± 6.5 mmHg
- Systolic blood pressure (Week 0): 111.0 ± 7.2 mmHg
- Diastolic blood pressure (Week 1): 79.9 ± 6.3 mmHg
- Systolic blood pressure (Week 1): 110.2 ± 5.8 mmHg
- Diastolic blood pressure (Week 2): 79.0 ± 5.3 mmHg
- Systolic blood pressure (Week 2): 108.8 ± 4.2 mmHg
- Diastolic blood pressure (Week 3): 78.9 ± 6.4 mmHg
- Systolic blood pressure (Week 3): 108.6 ± 4.3 mmHg
- Diastolic blood pressure (Week 4): 78.9 ± 3.9 mmHg
- Systolic blood pressure (Week 4): 108.4 ± 3.9 mmHg
- Diastolic blood pressure (Week 5): 78.8 ± 3.8 mmHg
- Systolic blood pressure (Week 5): 108.1 ± 4.1 mmHg
- Diastolic blood pressure (Week 6): 78.8 ± 3.2 mmHg
- Systolic blood pressure (Week 6): 108.1 ± 2.0 mmHg
- Diastolic blood pressure (Week 7): 78.8 ± 5.0 mmHg
- Systolic blood pressure (Week 7): 108.0 ± 3.1 mmHg
- Diastolic blood pressure (Week 8): 78.8 ± 2.9 mmHg
- Systolic blood pressure (Week 8): 108.0 ± 2.5 mmHg
